Data as given in patent US10328114B2, “Lung injury repair compositions and methods” (University of Iowa Research Foundation, priority 2015, dated 2019).
Entries after “also recorded” stand apart in the source; their conditions may differ. Where two headings read alike, the source gives them in different places. *: point of attachment. Myristoyl = CCCCCCCCCCCCCC(=O)*

Tests used:
[1] = system: isolated rat primary alveolar epithelial cells; conditions: hypoxia and diesel exhaust particle in vitro lung injury models, cited from earlier work
[2] = system: BALF isolated cells from bleomycin treated mice; experiment: ROS production (extracellular H2O2) of BALF cells, p-hydroxyphenylacetate method; type: in vivo, mouse; conditions: week 1 post initial instillation
Protocol: (§1) Animal protocols were approved by the Institutional Animal Care and Use Committee at the University of Iowa. C57BL/6 mice (Jackson Laboratories, Bar Harbor, Me.) were anesthetized followed by intratracheal instillation of: (A) Control (Ctrl): 1 μl of DMSO (Sigma, St. Louis, Mo.) plus 49 μl of PBS; (B) Bleomycin (Bleo): 1 μl of DMSO plus 49 μl of bleomycin (APP pharmaceuticals, LLC Schaumburg, Ill.) dissolved in PBS (4 U/kg); (C) Bleomycin/PKCζi (Bleo/PKCζi): 1 μg of PKCζi (Calbiochem EMD Biosciences, San Diego, Calif.) solubilized in 1 μl of DMSO plus 49 μl of bleomycin (4 U/Kg) dissolved in PBS (Calbiochem EMD Biosciences, San Diego, Calif.). After this treatment, all mice were instilled (50 μl) every 72 hours with 1 μl of DMSO plus 49 μl of PBS in the Ctrl and Bleo group or with 1 μg of PKCζi dissolved in 1 μl of DMSO plus 49 μl of PBS in the Bleo/PKCζi group for the duration of the experiment. Mice were treated for up to 6 weeks (FIG. 1A). All conditions had between 4 to 6 animals.
BALF cells from week 1 post initial instillation were determined by the p-hydroxyphenylacetate method as reported previously (25).

[3] = system: bleomycin induced ALI mouse model; experiment: Lung collagen deposition (hydroxyproline assay, Masson's trichrome) in bleomycin ALI model; type: in vivo; conditions: for lung fibrosis / lung injury resolution, biochemical and histological evidence: active TGF β, hydroxyproline, Masson staining
Protocol: as §1
The collagen content in the lung homogenates was determined with a hydroxyproline assay, as described previously (26). In addition, lung collagen deposition was examined in lung sections stained with Masson's trichrome.

[4] = system: bleomycin induced ALI mouse model; experiment: Lung compliance (flexiVent) in bleomycin ALI model; type: in vivo; conditions: for lung compliance, PKC-ζi instilled post injury: measured at one week; for lung compliance: week 1 post injury, PKCζi given with bleomycin and every 72 hours
Protocol: (§2) (4) PKC-ζi partially preserves lung compliance. Briefly, trachea was surgically exposed and tracheal cannula (18 gauge, Angiocath, Becton Dickinson, Sandy, Utah, USA) placed and secure in the lumen. The mice were paralyzed using intraperitoneal rocuronium (1 mg/Kg) to prevent spontaneous breathing and mechanically ventilated on a computer controlled respirator (flexiVent, SCIREQ Inc., Montreal, Canada). The ventilator was set up to deliver tidal volume 6 ml/kg for 10 minutes; respiratory rate of 150 breaths/min; 3 cmH2O positive end expiratory pressure (PEEP). The compliance was determined using the maneuver Pressure-volume ramp volume regulated (PVrV) to calculate the Quasi-static compliance. […] Since lung compliance is the product of an intact epithelial barrier and surfactant production, and PKCζ have been reported to be involved in surfactant production (Gobran et al., (1998). “PKCζ isoforms and other signaling proteins involved in surfactant secretion in developing rat type II cells.” Am J Physiol 274(6 Pt 1): L901-907), the inventors decided to examine by Western blot analysis total amount of SPC in BALF. […] Therefore, our results are likely due to preservation of the alveolar epithelial barrier.
(7) Treatment of mice with PKC-ζi after initial injury continues to be effective in preserving lung compliance. Since the majority of clinical scenarios involve the treatment of patients with established ALI, we set out to examine the effect of PKC-ζi post injury by instilling 6 and 24 hours after bleomycin instillation. Lung compliance was measured at one week.
as §1
Mice were anesthetized, paralyzed and lung function assessed with the flexiVent Legacy. (SCIREQ Inc., Montreal, Canada).

[5] = system: surfactant protein C (SPC); experiment: Surfactant protein C (SPC) by Western blot in bleomycin ALI model; type: in vivo, mouse
Protocol: as §2
Animal protocols were approved by the Institutional Animal Care and Use Committee at the University of Iowa. […]

[6] = system: bleomycin induced lung inflammation; experiment: Lung inflammation and cell death in bleomycin ALI model (BALF cell and neutrophil count, IL-1β, TUNEL); type: in vivo, mouse
Protocol: as §1
(§3) After dissection, immunofluorescence labeling was performed on frozen mouse lung tissue sections with polyclonal anti p-PKCζ (Santa Cruz Biotechnology, Dallas, Tex.) or monoclonal β4 antibody (Clone 346-11a, BD Biosciences, San Jose, Calif.) (23). In addition, Terminal deoxynucleotidyltransferase dUTP nick end labeling (TUNEL) staining was performed on week 1 mouse lung tissue sections (24).
Bronchoalveolar lavage was performed as previously described (18). Total cell count was examined by hemocytometer and the percent of neutrophils cells in the bronchoalveolar lavage fluid (BALF) by cytospin slides stained with Wright's-Giemsa. Total protein concentration was measured by Bradford assay (Bio-Rad, Hercules, Calif.).
(§4) Mouse IL-1β and active transforming growth factor beta (TGFβ) were measured using an ELISA from R&D Biosystems (Minneapolis, Minn.).

[7] = system: DLEP integrin β4^+ cells; experiment: DLEP integrin β4+ cells in mouse lungs by immunofluorescence after bleomycin injury; type: in vivo
Excerpt: (8) PKC-ζi promotes proliferation of distal lung epithelial progenitor cells. Recently Chapman et al reported that integrin α6β4 identifies a population of lung cells with regenerative potential in mice (Chapman et al. (2011). “Integrin alpha6beta4 identifies an adult distal lung epithelial population with regenerative potential in mice.” J Clin Invest 121(7): 2855-2862). Furthermore, Li et al, reported same population in human lungs (Li et al. (2013). “Integrin alpha6beta4 identifies human distal lung epithelial progenitor cells with potential as a cell-based therapy for cystic fibrosis lung disease.” PLoS One 8(12): e83624). Therefore, the inventors set out to examine by immunofluorescence the presence of these cells in mouse lungs at 3 and 6 weeks after bleomycin treatment. […] In addition, the inventors isolated mouse α6β4 cells and treated them for 2 weeks with PKC-ζi ([…]).
as §1, §3

[8] = system: active transforming growth factor beta (TGFβ); experiment: Active TGFβ ELISA in bleomycin ALI model; type: in vivo, mouse
Protocol: as §1, §4

[9] = week 3 post injury, listed as PKC-ζi

N-Myristoyl-Ser-Ile-Tyr-Arg-Arg-Gly-Ala-Arg-Arg-Trp-Arg-Lys-Leu-OH (Myristoyl-SIYRRGARRWRKL-OH; SMILES CCCCCCCCCCCCCC(=O)N[C@@H](CO)C(=O)N[C@H](C(=O)N[C@@H](Cc1ccc(O)cc1)C(=O)N[C@@H](CCCNC(=N)N)C(=O)N[C@@H](CCCNC(=N)N)C(=O)NCC(=O)N[C@@H](C)C(=O)N[C@@H](CCCNC(=N)N)C(=O)N[C@@H](CCCNC(=N)N)C(=O)N[C@@H](Cc1c[nH]c2ccccc12)C(=O)N[C@@H](CCCNC(=N)N)C(=O)N[C@@H](CCCCN)C(=O)N[C@@H](CC(C)C)C(=O)O)[C@@H](C)CC) [PKCζi]
alveolar epithelial barrier integrity [1]: prevents the disruption of the epithelial barrier in isolated rat primary alveolar epithelial cells
alveolar epithelial barrier integrity ([1]; listed as PKC-ζ inhibitor): preserves the alveolar epithelial barrier
ROS production / extracellular hydrogen peroxide (H2O2) of BALF cells [2]: does not reduce extracellular hydrogen peroxide (H2O2) in BALF isolated cells from bleomycin treated mice lung
ROS production / extracellular hydrogen peroxide (H2O2) of BALF cells ([2]; listed as PKC-ζi): did not prevent ROS production in bleomycin treated mice
collagen lung deposition by Masson's staining ([3]; FIG. 4C, printed as week 3): decreased collagen lung deposition by masson's staining at week 3 compared to bleomycin group
hydroxyproline content, PKCζi only during the first week ([3]; measured at week 6): increase hydroxyproline content similar to Bleomycin alone group at week 6
histological lung collagen deposition ([3]; three weeks after bleomycin, Example 1): histological evidence of lung collagen deposition
lung hydroxyproline concentration ([3]; week 3 post injury): no difference in active TGF β and hydroxyproline concentrations compared to bleomycin group; also recorded: does not decrease hydroxyproline concentration
lung hydroxyproline concentration [3, 9]: high concentrations of hydroxyproline
lung fibrosis / lung injury resolution, biochemical and histological evidence ([3]; week 6): demonstrated lung injury resolution in the PKCζi treated group
lung fibrosis / lung injury resolution, biochemical and histological evidence ([3]; week 6, listed as PKC-ζi): total resolution of lung fibrosis in the PKC-ζi treated group
lung hydroxyproline concentration ([3]; week 6, continuous PKCζi treatment): decreased hydroxyproline concentration at week 6 compare to bleomycin group
lung compliance, PKC-ζi instilled post injury ([4]; instillation 6 hours after bleomycin): prevented the decrease in lung compliance
lung compliance, PKC-ζi instilled post injury ([4]; instillation 24 hours after bleomycin): no protective effect
lung compliance [4]: partial but statistically significant prevention in the lung compliance decrease compared to bleomycin alone group; also recorded: preserves lung compliance compare to bleomycin
lung compliance ([4]; listed as PKC-ζi): partially preserve lung compliance compared to control
total amount of SPC in BALF (Western blot) ([5]; Example 1): did not prevent a reduction in SPC
total SPC in whole lungs (Western blot) ([5]; week 1, Example 2): did not prevent the reduction in SPC caused by bleomycin injury; also recorded: does not prevent total SPC decrease in the lungs
bleomycin induced inflammatory response ([6]; Example 1): did not prevent increase in inflammatory response
apoptotic cells by TUNEL+ staining ([6]; week 1 lung sections): did not prevent the increase in apoptotic cells by TUNEL^+ staining
BALF cell count ([6]; week 1 post injury): neither prevented the increase in BALF cell and neutrophil count
BALF neutrophil concentration / count ([6]; week 1 post injury): neither prevented the increase in BALF cell and neutrophil count; also recorded: does not decrease bleomycin induced increase in the BALF neutrophil concentration
IL-1β in BALF ([6]; week 1 post injury): nor prevented the increase in IL-1β concentration; also recorded: does not decrease IL-1β release into BALF
number of lung DLEP integrin β4+ (α6β4) cells ([7]; week 3 after bleomycin): an increase in DLEP integrin β4^+ cells in the PKCζi treated mice at week 3
number of lung DLEP integrin β4+ (α6β4) cells ([7]; week 3 after bleomycin, listed as PKC-ζi): an increase trend in α6β44 in the PKC-ζi treated mice
number of lung DLEP integrin β4+ (α6β4) cells ([7]; week 6 after bleomycin): became statistically significant at week 6; also recorded: increased number of lung DLEP integrin β4^+ cells compared to bleomycin group at week 6
number of lung DLEP integrin β4+ (α6β4) cells ([7]; week 6 after bleomycin, listed as PKC-ζi): became significant at 6 weeks
active TGF β ([8]; week 3 post injury): no difference in active TGF β and hydroxyproline concentrations compared to bleomycin group; also recorded: does not prevent bleomycin induced TGF β activation
active TGF β [8, 9]: significantly elevated in both groups
active TGF β ([8]; week 6): prevents bleomycin induced active TGF β at week 6
